Molecules are shown by their SMILES.

In the assay the test system is HT29 and Colo205 (human colon carcinoma) and H460 and Calu-6 (nonsmall cell carcinoma) xenograft tumors. The assay is described as follows: Xenograft animal tumor models. Type of assay: in vivo. Conditions: gemcitabine 160 mg/kg i.p., Balb/c (nu/nu) mice. The source says:
To test the ability of the Chk1 inhibitors of the invention to enhance the killing of tumors by DNA damaging agents in mice, xenograft tumor models using colon tumor cell lines are established. 5-fluorouracil (5-FU) or gemcitabine can be used as DNA damaging agents. HT29 and Colo205 (human colon carcinoma) and H460 and Calu-6 (nonsmall cell carcinoma) cells can be used to propagate xenograft tumors in 6-8 week old female […] Balb/c (nu/nu) mice. Mice are maintained in a laminar airflow cabinet under pathogen-free conditions and fed sterile food and water ad libitum. Cell lines are grown to subconfluence in RPMI 1640 media supplemented with 10% FBS, 100 U/mL penicillin, 100 μg/mL streptomycin, and 1.5 mM L-glutamine in a 5% CO2 humidified environment. Single cell suspensions are prepared in CMF-PBS, and cell concentration adjusted to 1×10^8 cells/mL. Mice are inoculated subcutaneously (s.c.) on the right flank or right leg with a total of 1×10^7 cells (100 μL). Mice are randomized (5-15 mice/group) into four treatment groups and used when tumors reach a volume of […] (usually 7-11 days post-inoculation). Tumors are measured with […] calipers and tumor volumes are estimated using the empirically derived formula: tumor volume (cm^3)=tumor length (cm) x tumor width (cm)×tumor depth (cm)/3.3. […] Tumor size is monitored every other day for the duration of the experiment.

`Nc1ccn([C@@H]2O[C@H](CO)[C@@H](O)C2(F)F)c(=O)n1` [gemcitabine, 2′,2′ difluoro-2′-deoxycytidine]: the tumor growth result was “delay in tumor growth”.

The values are drawn from patent publication US20080318974A1, “Compounds Useful for Inhibiting Chk1” (Icos Corporation, priority 2004, published 2008).
